Measured values from US11116757B2 (priority 2015, dated 2021).
Values after ≈ are worked out from the molar mass of the structure shown. Where two headings read alike, the source gives them in different places.

Legend:
DCN1-UBC12 interaction = DCN1-UBC12 interaction (Homo sapiens (Human), UniProt Q96GG9); test: biochemical; assay type: binding; conditions: for inhibition of the DCN1-UBC12NAc interaction: TR-FRET assay
U-2 OS cells = test: Electron microscopy of compound treated cells; assay type: cell-based
[1] = target: Dcn1P-mediated co-E3 activity (Homo sapiens (Human), UniProt Q96GG9); test: Pulse-chase neddylation assay (NEDD8 transfer from UBC12 to CUL2CTD); assay type: biochemical; conditions: for inhibition of labeled NEDD8 transfer from UBC12 to CUL2CTD-RBX2: pulse-chase neddylation assay
Experimental: Compound inhibition of Dcn1^P-mediated co-E3 activity was monitored using pulse-chase assays to exclusively monitor effects of Nedd8 transfer to Cul2 without sensing earlier steps in the reaction. […] Load reactions were quenched by the addition of EDTA to 50 mM and incubated on ice for 5 minutes. Chase reactions involved dilution of the UBC12˜[^FAM]-Nedd8 thioester conjugate to 40 nM in 50 mM Tris, 50 mM NaCl, 50 mM EDTA, 0.5 mg/mL BSA, pH 6.8. […] Fluorescent gels were visualized by scanning on a Typhoon imager (GE).

physchem = conditions: aqueous buffer, kinetic from dmso stock
Experimental: Solubility assays were carried out on a Biomek FX lab automation workstation (Beckman Coulter, Inc., Fullerton, Calif.) using μSOL Evolution software (pION Inc., Woburn, Mass.). […] Compound stock (10 mM in DMSO, 10 μL) was added to 1-propanol (190 μL) to make a reference stock plate. […] Test compound stock (10 mM, 6 μL) was added to buffer (594 μL) in a 96-well storage plate and mixed. […] The suspension was then filtered through a 96-well filter plate (pION Inc., Woburn, Mass.). […] Calculation was carried out by μSOL Evolution software based on the AUC (area under curve) of UV spectrum of the sample plate and the reference plate. All compounds were tested in triplicate.

[2] = assay type: in vitro ADME; conditions: Table 10
Experimental: Test compound stock (10 mM in DMSO, 3 μL) was mixed with citrate phosphate buffered saline (597 μL) to make diluted test compound. Diluted test compound (150 μL) was transferred to a UV plate (pION Inc., Woburn, Mass.) and the UV spectrum (250 nm-500 nm) was read as the reference plate. Each well of the donor plate in a PAMPA sandwich plate (pION Inc., Woburn, Mass.) contained a filter that was painted on one side with 4 μL GIT lipid (pION Inc., Woburn, Mass.) to form a membrane. Each well in the acceptor plate in a PAMPA sandwich, preloaded with magnetic stir bars, was filled with acceptor solution buffer (200 pION Inc., Woburn, Mass.). The donor plate was filled with diluted test compound (180 The PAMPA sandwich was assembled by placing the donor plate over the acceptor plate. The combined PAMPA plate was placed on a pIon Gut-Box™, a stirring apparatus that allows equilibrium to be reached quicker. Aqueous Boundary Layer of the pIon Gut-Box™ was set to 40 μm and the compounds stirred for 30 minutes. The UV spectrum (250 nm-500 nm) of the donor and the acceptor were read. The permeability coefficient was calculated using PAMPA evolution 96 command software (pION Inc., Woburn, Mass.) based on the whole spectrum measured from the reference plate, the donor plate, and the acceptor plate. All compounds were tested in triplicates.

[3] = Table 10, R101 series, read-out: IC50 (μM) (TR-FRET)

Chain of DCN1-UBC12 interaction (Q96GG9 60-248 limits assumed): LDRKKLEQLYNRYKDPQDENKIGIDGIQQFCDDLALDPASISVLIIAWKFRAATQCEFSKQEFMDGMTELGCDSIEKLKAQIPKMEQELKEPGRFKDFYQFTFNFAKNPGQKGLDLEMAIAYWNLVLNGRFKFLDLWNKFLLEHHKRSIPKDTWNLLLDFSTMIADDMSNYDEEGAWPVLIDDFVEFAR
Chain of Dcn1P-mediated co-E3 activity (Q96GG9 whole entry, looked up): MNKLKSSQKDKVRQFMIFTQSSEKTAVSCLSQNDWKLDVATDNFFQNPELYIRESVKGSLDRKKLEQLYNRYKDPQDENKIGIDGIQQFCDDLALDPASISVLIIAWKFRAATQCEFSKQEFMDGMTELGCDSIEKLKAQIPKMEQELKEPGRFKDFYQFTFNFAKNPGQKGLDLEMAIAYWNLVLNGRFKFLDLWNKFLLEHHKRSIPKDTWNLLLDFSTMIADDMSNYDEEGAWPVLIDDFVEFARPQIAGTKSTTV
Chain of Dcn1P-mediated co-E3 activity (Q13617 whole entry partner, looked up): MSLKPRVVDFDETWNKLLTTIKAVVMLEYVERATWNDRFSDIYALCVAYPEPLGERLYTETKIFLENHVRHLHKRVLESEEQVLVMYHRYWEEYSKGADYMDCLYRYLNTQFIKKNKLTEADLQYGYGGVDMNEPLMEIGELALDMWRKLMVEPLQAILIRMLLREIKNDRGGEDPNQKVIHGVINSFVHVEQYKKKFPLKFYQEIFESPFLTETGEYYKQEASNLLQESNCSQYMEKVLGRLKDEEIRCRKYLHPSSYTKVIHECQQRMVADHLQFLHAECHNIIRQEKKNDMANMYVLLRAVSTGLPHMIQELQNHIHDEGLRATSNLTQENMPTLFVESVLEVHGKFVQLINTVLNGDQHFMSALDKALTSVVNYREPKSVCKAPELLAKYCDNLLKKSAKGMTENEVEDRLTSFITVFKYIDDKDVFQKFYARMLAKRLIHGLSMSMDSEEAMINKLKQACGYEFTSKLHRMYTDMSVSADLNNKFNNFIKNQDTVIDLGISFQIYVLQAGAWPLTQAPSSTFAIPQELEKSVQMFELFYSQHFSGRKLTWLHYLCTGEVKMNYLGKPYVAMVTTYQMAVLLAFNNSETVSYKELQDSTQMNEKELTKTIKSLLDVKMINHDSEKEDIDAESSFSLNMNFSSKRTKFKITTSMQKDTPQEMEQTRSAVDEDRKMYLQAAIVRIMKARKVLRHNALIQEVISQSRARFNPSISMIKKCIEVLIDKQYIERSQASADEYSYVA
Chain of Dcn1P-mediated co-E3 activity (Q9UBF6 whole entry partner, looked up): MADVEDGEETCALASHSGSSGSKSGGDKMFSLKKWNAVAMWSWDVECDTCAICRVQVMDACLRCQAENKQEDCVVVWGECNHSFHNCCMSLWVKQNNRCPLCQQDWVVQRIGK

With C=CC(=O)NCc1cccc(CN(C(=O)Nc2cccc(C(F)(F)F)c2)C2CCN(C(C)CCC)CC2)c1 (stereo not drawn) [A3] the IC50 (DCN1-UBC12 interaction; read-out: TR-FRET IC50) was 0.018 µM and the “vacuolar structures by electron microscopy” value (U-2 OS cells) was “presence of large vacuolar structures”.

With O=C(Nc1cccc(C(F)(F)F)c1)NC1CCN(Cc2ccccc2)CC1 [B7, 1-(1-Benzylpiperidin-4-yl)-3-(3-(Trifluoromethyl)Phenyl)Urea] the “inhibition of DCN1 dependent neddylation” value ([1]; dependence on presence of DCN1) was “specifically inhibits DCN1 dependent nedylation”, the “inhibition of labeled NEDD8 transfer from UBC12 to CUL2CTD-RBX2” value (shortened to “inhibition of labeled NEDD8 transfer”) [1] was “dose-dependent inhibition” and the “inhibition of the DCN1-UBC12NAc interaction” value (DCN1-UBC12 interaction) was “dose-dependent inhibition”.

In the case of CCCN1CCN(C(=O)c2cnn(-c3nccc(-c4cccs4)n3)c2C(C)C)CC1 [E1, (5-Isopropyl-1-(4-(Thiophen-2-yl)Pyrimidin-2-yl)-1H-Pyrazol-4-yl)(4-Propylpiperazin-1-yl)Methanone], the “inhibition of labeled NEDD8 transfer” value [1] is reported as “dose-dependent inhibition”, the “inhibition of the DCN1-UBC12NAc interaction” value (DCN1-UBC12 interaction) is reported as “dose-dependent inhibition” and the IC50 (DCN1-UBC12 interaction; Table 6, commercial compounds, read-out: TR-FRET IC50) is reported as 1.07 µM.

In the case of Cc1cccc(C(=O)NC2C(=O)Nc3c(c(C)nn3-c3ccccc3)C2c2ccc(F)cc2)c1 (stereo not drawn) [F1], the “inhibition of labeled NEDD8 transfer” value [1] is reported as “dose-dependent inhibition”.

For O=C(Nc1cccc(C(F)(F)F)c1)N(Cc1ccccc1)C1CCN(Cc2cccnc2)CC1 [compound 23], the solubility kinetic (physchem) was 30 ± 1.1 µM (≈ 14.1 µg/mL), the IC50 (DCN1-UBC12 interaction; [3]) was 12 µM and the “Pampa (×10^−6 cm/s)” value [2] was >2200 ×10^−6 cm/s.

For O=C(Nc1cccc(C(F)(F)F)c1)N(Cc1ccccc1)C1CCN(Cc2ccc(F)cc2)CC1 [compound 24], the solubility kinetic (physchem) was 0.9 ± 0.1 µM (≈ 0.437 µg/mL), the IC50 (DCN1-UBC12 interaction; [3]) was 9.2 µM and the “Pampa (×10^−6 cm/s)” value [2] was >2200 ×10^−6 cm/s.

For CCOc1cc(CN2CCC(N(Cc3ccccc3)C(=O)Nc3cccc(C(F)(F)F)c3)CC2)cc(Cl)c1O [compound 25], the solubility kinetic (physchem) was 0.4 ± 0.1 µM (≈ 0.225 µg/mL) and the “Pampa (×10^−6 cm/s)” value [2] was 110 ± 190 ×10^−6 cm/s.

For O=C(Nc1cccc(C(F)(F)F)c1)N(Cc1ccccc1)C1CCN(Cc2ccc3c(c2)OCO3)CC1 [compound 26], the solubility kinetic (physchem) was under 0.1 µM, the IC50 (DCN1-UBC12 interaction; [3]) was 7 µM and the “Pampa (×10^−6 cm/s)” value [2] was >2200 ×10^−6 cm/s.

In the case of O=C(Nc1cccc(C(F)(F)F)c1)N(Cc1ccccc1)C1CCN(Cc2ccc3c(c2)OCCO3)CC1 [compound 27], the solubility kinetic (physchem) is reported as 1 ± 1.3 µM (≈ 0.526 µg/mL), the IC50 (DCN1-UBC12 interaction; [3]) is reported as 7.3 µM and the “Pampa (×10^−6 cm/s)” value [2] is reported as >2200 ×10^−6 cm/s.

CCCC(C)N1CCC(N(CCNC(=O)CCl)C(=O)Nc2cccc(C(F)(F)F)c2)CC1 (stereo not drawn) [drawing 837] showed an IC50 (DCN1-UBC12 interaction; read-out: TR-FRET IC50) of over 60 µM.

C=CS(=O)(=O)NCCCN(C(=O)Nc1cccc(C(F)(F)F)c1)C1CCN(C(C)CCC)CC1 (stereo not drawn) [drawing 838] showed an IC50 (DCN1-UBC12 interaction; read-out: TR-FRET IC50) of over 24 µM.

In the case of C=CS(=O)(=O)NCCN(C(=O)Nc1cccc(C(F)(F)F)c1)C1CCN(C(C)CCC)CC1 (stereo not drawn) [drawing 839], the IC50 (DCN1-UBC12 interaction; read-out: TR-FRET IC50) is reported as over 41 µM.

C=CC(=O)Nc1cccc(CN(C(=O)Nc2cccc(C(F)(F)F)c2)C2CCN(C(C)CCC)CC2)c1 (stereo not drawn) [drawing 840] showed an IC50 (DCN1-UBC12 interaction; read-out: TR-FRET IC50) of 0.11 µM.

In the case of CCCC(C)N1CCC(N(Cc2cccc(NC(=O)CCl)c2)C(=O)Nc2cccc(C(F)(F)F)c2)CC1 (stereo not drawn) [drawing 842], the IC50 (DCN1-UBC12 interaction; read-out: TR-FRET IC50) is reported as 0.095 µM.

For CCCC(C)N1CCC(N(Cc2ccccc2NC(=O)CCl)C(=O)Nc2cccc(C(F)(F)F)c2)CC1 (stereo not drawn) [drawing 843], the IC50 (DCN1-UBC12 interaction; read-out: TR-FRET IC50) was 0.208 µM.

Compound C=CS(=O)(=O)Nc1cccc(CN(C(=O)Nc2cccc(C(F)(F)F)c2)C2CCN(C(C)CCC)CC2)c1 (stereo not drawn) [drawing 844] has an IC50 (DCN1-UBC12 interaction; read-out: TR-FRET IC50) of 0.165 µM.

For C=CC(=O)NCc1cccc(CN(C(=O)Nc2cccc(C(F)(F)F)c2)C2CCN(C(C)CCC)CC2)c1 (stereo not drawn) [drawing 845], the IC50 (DCN1-UBC12 interaction; read-out: TR-FRET IC50) was 0.018 µM.

For C=CC(=O)NCc1ccccc1CN(C(=O)Nc1cccc(C(F)(F)F)c1)C1CCN(C(C)CCC)CC1 (stereo not drawn) [drawing 846], the IC50 (DCN1-UBC12 interaction; read-out: TR-FRET IC50) was under 0.01 µM.

CCCC(C)N1CCC(N(Cc2cccc(CNC(=O)CCl)c2)C(=O)Nc2cccc(C(F)(F)F)c2)CC1 (stereo not drawn) [drawing 847] showed an IC50 (DCN1-UBC12 interaction; read-out: TR-FRET IC50) of under 0.01 µM.

For CCCC(C)N1CCC(N(Cc2ccccc2CNC(=O)CCl)C(=O)Nc2cccc(C(F)(F)F)c2)CC1 (stereo not drawn) [drawing 848], the IC50 (DCN1-UBC12 interaction; read-out: TR-FRET IC50) was 0.154 µM.

C=CS(=O)(=O)NCc1cccc(CN(C(=O)Nc2cccc(C(F)(F)F)c2)C2CCN(C(C)CCC)CC2)c1 (stereo not drawn) [drawing 849] showed an IC50 (DCN1-UBC12 interaction; read-out: TR-FRET IC50) of under 0.01 µM.

With C=CS(=O)(=O)NCc1ccccc1CN(C(=O)Nc1cccc(C(F)(F)F)c1)C1CCN(C(C)CCC)CC1 (stereo not drawn) [drawing 850] the IC50 (DCN1-UBC12 interaction; read-out: TR-FRET IC50) was under 0.01 µM.
